Read-outs that look alike come from different tables or passages of the source.
Test system: cellular H3K27 methylation
Assay: Cellular H3K27 methylation assay (Western blot of H3K27me3 in HeLa cells)
Type: cell-based
Details: Homo sapiens, 72 h, read-out: PD IC50
[1] = HeLa cells, 3 days, H3K27me3 level by Western blot

IC50 [1] | SMILES | IC50 (HeLa)
284 nM | Fc1ccc2c(c1CNc1ncc(NCC3CC3)c3nncn13)CCO2 [HJM-022] | –
1160 nM | Fc1ccc2c(c1CNc1ncc(NCCN3CCOCC3)c3nncn13)CCO2 [HJM-023] | –
82.2 nM | O=C(NC1CC1)c1cnc(NCc2c(F)ccc3c2CCO3)n2cnnc12 [HJM-029] | –
317 nM | O=C(CN1CCOCC1)Nc1cnc(NCc2c(F)ccc3c2CCO3)n2cnnc12 [HJM-032] | –
99.5 nM | COCCC(=O)Nc1cnc(NCc2c(F)ccc3c2CCO3)n2cnnc12 [HJM-034] | –
53.6 nM | O=C(Nc1cnc(NCc2c(F)ccc3c2CCO3)n2cnnc12)C1CCC1 [HJM-035] | –
160 nM | O=C(Nc1cnc(NCc2c(F)ccc3c2CCO3)n2cnnc12)C1CCCC1 [HJM-036] | –
187 nM | O=C(Nc1cnc(NCc2c(F)ccc3c2CCO3)n2cnnc12)C1CCOC1 (stereo not shown) [HJM-038] | –
67.2 nM | O=C(Nc1cnc(NCc2c(F)ccc3c2CCO3)n2cnnc12)C1CCCCO1 (stereo not shown) [HJM-039] | –
175 nM | O=C(Nc1cnc(NCc2c(F)ccc3c2CCO3)n2cnnc12)C1CCCOC1 (stereo not shown) [HJM-040] | –
334 nM | O=C(Nc1cnc(NCc2c(F)ccc3c2CCO3)n2cnnc12)C1CCOCC1 [HJM-041] | –
50.5 nM | CS(=O)(=O)N1CCC(c2cnc(NCc3c(F)ccc4c3CCO4)n3cnnc23)C1 (stereo not shown) [HJM-050] | –
28.8 nM | CN1CCCC(c2cnc(NCc3c(F)ccc4c3CCO4)n3cnnc23)C1 (stereo not shown) [HJM-053] | –
363 nM | CS(=O)(=O)Nc1cnc(NCc2c(F)ccc3c2CCO3)n2cnnc12 [HJM-065] | –
83.1 nM | CCC(=O)Nc1cnc(NCc2c(F)ccc3c2CCO3)n2cnnc12 [HJM-070] | –
72.8 nM | CC(C)C(=O)Nc1cnc(NCc2c(F)ccc3c2CCO3)n2cnnc12 [HJM-071] | –
554 nM | N#CCC(=O)Nc1cnc(NCc2c(F)ccc3c2CCO3)n2cnnc12 [HJM-074] | –
77.6 nM | CN(C)CC(=O)Nc1cnc(NCc2c(F)ccc3c2CCO3)n2cnnc12 [HJM-081] | –
188 nM | CN1CCOC(C(=O)Nc2cnc(NCc3c(F)ccc4c3CCO4)n3cnnc23)C1 (stereo not shown) [HJM-086] | –
235 nM | CN1CC(C(=O)Nc2cnc(NCc3c(F)ccc4c3CCO4)n3cnnc23)C1 [HJM-087] | –
601 nM | COCCN1CC(C(=O)Nc2cnc(NCc3c(F)ccc4c3CCO4)n3cnnc23)C1 [HJM-088] | –
178 nM | O=C(Nc1cnc(NCc2c(F)ccc3c2CCO3)n2cnnc12)c1ncco1 [HJM-095] | –
89.9 nM | O=C(Nc1cnc(NCc2c(F)ccc3c2CCO3)n2cnnc12)c1ccno1 [HJM-096] | –
792 nM | CN1CCN(C(=O)Nc2cnc(NCc3c(F)ccc4c3CCO4)n3cnnc23)CC1 [HJM-097] | –
309 nM | CN(CC1CC1)C(=O)Nc1cnc(NCc2c(F)ccc3c2CCO3)n2cnnc12 [HJM-098] | –
1590 nM | O=C(Nc1cnc(NCc2c(F)ccc3c2CCO3)n2cnnc12)N1CCOCC1 [HJM-099] | –
550 nM | CN1CC(COc2cnc(NCc3c(F)ccc4c3CCO4)n3cnnc23)C1 [HJM-116] | –

Further lines, the molecule ahead of its results:

SMILES | IC50 [1] | IC50 (HeLa)
Fc1ccc2c(c1CNc1nccc3nncn13)CCO2 [HJM-001] | 484 nM | –
Fc1ccc2c(c1CNc1ncc(C3CC3)c3nncn13)CCO2 [HJM-002] | 98.8 nM | –
Fc1ccc2c(c1CNc1ncc(C3CCCCO3)c3nncn13)CCO2 (stereo not shown) [HJM-004, N-((5-fluoro-2,3-dihydrobenzofuran-4-yl)methyl)-8-(tetrahydro-2H-pyran-2-yl)-[1,2,4]triazolo[4,3-c]pyrimidin-5-amine] | 140 nM | –
Cc1ncccc1CCc1cnc(NCc2c(F)ccc3c2CCO3)n2cnnc12 [HJM-005] | 454 nM | –
Fc1ccc2c(c1CNc1ncc(/C=C/CN3CCCCC3)c3nncn13)CCO2 [HJM-006] | 48.7 nM | –
Fc1ccc2c(c1CNc1ncc(/C=C/CN3CCOCC3)c3nncn13)CCO2 [HJM-007] | 49.9 nM | –
Fc1ccc2c(c1CNc1ncc(CCCN3CCCCC3)c3nncn13)CCO2 [HJM-008] | 112 nM | –
CC(c1cnc(NCc2c(F)ccc3c2CCO3)n2cnnc12)N1CCCCC1 (stereo not shown) [HJM-009] | 563 nM | –
COCCC(COC)c1cnc(NCc2c(F)ccc3c2CCO3)n2cnnc12 (stereo not shown) [HJM-012] | 112 nM | –
Fc1ccc2c(c1CNc1ncc(OCCN3CCOCC3)c3nncn13)CCO2 [HJM-013] | 225 nM | –
COc1cnc(NCc2c(F)ccc3c2CCO3)n2cnnc12 [HJM-014] | 43.7 nM | –
Fc1ccc2c(c1CNc1ncc(OC3CCOC3)c3nncn13)CCO2 (stereo not shown) [HJM-018] | 59.2 nM | –
Cc1ncccc1COc1cnc(NCc2c(F)ccc3c2CCO3)n2cnnc12 [HJM-021] | 242 nM | –
CN(CCN1CCOCC1)c1cnc(NCc2c(F)ccc3c2CCO3)n2cnnc12 [HJM-024] | 1110 nM | –
CCN(CC)C(=O)c1cnc(NCc2c(F)ccc3c2CCO3)n2cnnc12 [HJM-026] | 75.6 nM | –
O=C(c1cnc(NCc2c(F)ccc3c2CCO3)n2cnnc12)N1CCCCC1 [HJM-028] | 95.3 nM | –
O=C(Nc1cnc(NCc2c(F)ccc3c2CCO3)n2cnnc12)c1cccnc1 [HJM-043] | – | 115 nM
O=C(Nc1cnc(NCc2c(F)ccc3c2CCO3)n2cnnc12)c1ccncc1 [HJM-044] | 288 nM | –
COc1cccc(F)c1CNc1ncc(/C=C/c2cccnc2C)c2nncn12 [HJM-046] | 2000 nM | –
COc1cccc(F)c1CNc1ncc(CCc2cccnc2C)c2nncn12 [HJM-047] | 7000 nM | –
COc1cccc(F)c1CNc1ncc(Oc2cccnc2C)c2nncn12 [HJM-048] | 1620 nM | –
COc1cccc(F)c1CNc1ncc(/C=C/CN2CCCCC2)c2nncn12 [HJM-049] | 296 nM | –

SMILES | IC50 [1] | IC50 (HeLa)
Fc1ccc2c(c1CNc1ncc(C3CCCCC3)c3nncn13)CCO2 [HJM-051] | 167 nM | –
Fc1ccc2c(c1CNc1ncc(C3CCOC3)c3nncn13)CCO2 (stereo not shown) [HJM-054] | 31.1 nM | –
O=C(N1CCC(c2cnc(NCc3c(F)ccc4c3CCO4)n3cnnc23)CC1)C(F)(F)F [HJM-056] | 12.8 nM | –
Fc1ccc2c(c1CNc1ncc(C3CCN(CC(F)(F)F)CC3)c3nncn13)CCO2 [HJM-057] | 40.5 nM | –
OCCN1CCC(c2cnc(NCc3c(F)ccc4c3CCO4)n3cnnc23)CC1 [HJM-058] | 131 nM | –
Fc1ccc2c(c1CNc1ncc(C3CCN(C4CC4)CC3)c3nncn13)CCO2 [HJM-059] | 38.5 nM | –
Fc1ccc2c(c1CNc1ncc(C3CCN(C4COC4)CC3)c3nncn13)CCO2 [HJM-060] | 141 nM | –
CC1COCCN1c1cnc(NCc2c(F)ccc3c2CCO3)n2cnnc12 (stereo not shown) [HJM-061] | 110 nM | –
Fc1ccc2c(c1CNc1ncc(N3CCC(F)(F)C3)c3nncn13)CCO2 [HJM-062] | 445 nM | –
COC1CCN(c2cnc(NCc3c(F)ccc4c3CCO4)n3cnnc23)C1 (stereo not shown) [HJM-063] | 684 nM | –
O=C1CCN(c2cnc(NCc3c(F)ccc4c3CCO4)n3cnnc23)CC1 [HJM-064] | 180 nM | –
Fc1ccc2c(c1CNc1ncc(Nc3ccccc3)c3nncn13)CCO2 [HJM-066] | – | 228 nM
O=C1CCCCN1c1cnc(NCc2c(F)ccc3c2CCO3)n2cnnc12 [HJM-068] | 138 nM | –
CC(=O)Nc1cnc(NCc2c(F)ccc3c2CCO3)n2cnnc12 [HJM-069] | 391 nM | –
O=C(CO)Nc1cnc(NCc2c(F)ccc3c2CCO3)n2cnnc12 [HJM-075] | 690 nM | –
[2H]C([2H])([2H])N(C(=O)C1CC1)c1cnc(NCc2c(F)ccc3c2CCO3)n2cnnc12 [HJM-076] | 6.36 nM | –
[2H]C([2H])(Nc1ncc(N(C)C(=O)C2CC2)c2nncn12)c1c(F)ccc2c1CCO2 [HJM-077] | 14.9 nM | –
[2H]C([2H])(Nc1ncc(N(C(=O)C2CC2)C([2H])([2H])[2H])c2nncn12)c1c(F)ccc2c1CCO2 [HJM-078] | 12.1 nM | –
CCCN(C(=O)C1CC1)c1cnc(NCc2c(F)ccc3c2CCO3)n2cnnc12 [HJM-080] | 35 nM | –
COCCN(C)CC(=O)Nc1cnc(NCc2c(F)ccc3c2CCO3)n2cnnc12 [HJM-085] | 62.5 nM | –
O=C(CCc1ccccc1)Nc1cnc(NCc2c(F)ccc3c2CCO3)n2cnnc12 [HJM-089] | 256 nM | –
COc1ccc(C(=O)Nc2cnc(NCc3c(F)ccc4c3CCO4)n3cnnc23)cc1 [HJM-090] | 198 nM | –

SMILES | IC50 [1] | IC50 (HeLa)
COc1ccc(C(=O)Nc2cnc(NCc3c(F)ccc4c3CCO4)n3cnnc23)cn1 [HJM-091] | 291 nM | –
O=C(Nc1cnc(NCc2c(F)ccc3c2CCO3)n2cnnc12)c1ccccc1F [HJM-092] | 139 nM | –
CS(=O)(=O)c1ccc(C(=O)Nc2cnc(NCc3c(F)ccc4c3CCO4)n3cnnc23)cc1 [HJM-093] | 814 nM | –
O=C(Nc1cnc(NCc2c(F)ccc3c2CCO3)n2cnnc12)c1cnco1 [HJM-094] | 223 nM | –
Fc1ccc2c(c1CNc1ncc(OC3CC(F)(F)C3)c3nncn13)CCO2 [HJM-107] | 48.5 nM | –
Fc1ccc2c(c1CNc1ncc(OCC3CC3(F)F)c3nncn13)CCO2 (stereo not shown) [HJM-108] | 126 nM | –
[2H]C([2H])(Nc1ncc(OCC2COC2)c2nncn12)c1c(F)ccc2c1CCO2 [HJM-109] | 24.7 nM | –
[2H]C([2H])(Nc1ncc(OC2CCOCC2)c2nncn12)c1c(F)ccc2c1CCO2 [HJM-110] | 32.8 nM | –
[2H]C([2H])(Nc1ncc(OCC2CCOC2)c2nncn12)c1c(F)ccc2c1CCO2 (stereo not shown) [HJM-111] | 37.9 nM | –
[2H]C([2H])(Nc1ncc(OC([2H])([2H])C2COC2)c2nncn12)c1c(F)ccc2c1CCO2 [HJM-112] | 29.4 nM | –
[2H]C([2H])(Oc1cnc(NCc2c(F)ccc3c2CCO3)n2cnnc12)C1COC1 [HJM-113] | 59.7 nM | –
O=C(C1CC1)N1CC(Oc2cnc(NCc3c(F)ccc4c3CCO4)n3cnnc23)C1 [HJM-115] | 201 nM | –
CC(=O)N1CC(COc2cnc(NCc3c(F)ccc4c3CCO4)n3cnnc23)C1 [HJM-117] | 1300 nM | –
CNCCOc1cnc(NCc2c(F)ccc3c2CCO3)n2cnnc12 [HJM-118] | 792 nM | –
CN(C)CCOc1cnc(NCc2c(F)ccc3c2CCO3)n2cnnc12 [HJM-119] | 264 nM | –
OC1CCC(Oc2cnc(NCc3c(F)ccc4c3CCO4)n3cnnc23)CC1 (stereo not shown) [HJM-121] | 494 nM | –
COC1CCC(Oc2cnc(NCc3c(F)ccc4c3CCO4)n3cnnc23)CC1 (stereo not shown) [HJM-122] | 54.9 nM | –
COC1CCC(COc2cnc(NCc3c(F)ccc4c3CCO4)n3cnnc23)CC1 (stereo not shown) [HJM-123] | 132 nM | –
O[C@H]1CC[C@H](COc2cnc(NCc3c(F)ccc4c3CCO4)n3cnnc23)CC1 [HJM-125] | 463 nM | –
Fc1ccc2c(c1CNc1ncc(OCCOc3ccccc3)c3nncn13)CCO2 [HJM-126] | 92.1 nM | –

— patent publication US12552796B2, “EED inhibitor, and preparation method therefor and use thereof” (SHANGHAITECH UNIVERSITY, priority 2019, dated 2026)
